Results as given in patent US10189777B2, “Benzenesulfonamido and related compounds for use as agonists of RORγ and the treatment of disease” (Lycera Corporation, priority 2014, dated 2019).

Target: T1, HIS-tagged RORγ-LBD protein (Homo sapiens, UniProt P51449)
T1 construct: made in house; host or cells: SF9 cells, baculovirus expression system; the lysate was used
T1 sequence (P51449 269-508 limits assumed): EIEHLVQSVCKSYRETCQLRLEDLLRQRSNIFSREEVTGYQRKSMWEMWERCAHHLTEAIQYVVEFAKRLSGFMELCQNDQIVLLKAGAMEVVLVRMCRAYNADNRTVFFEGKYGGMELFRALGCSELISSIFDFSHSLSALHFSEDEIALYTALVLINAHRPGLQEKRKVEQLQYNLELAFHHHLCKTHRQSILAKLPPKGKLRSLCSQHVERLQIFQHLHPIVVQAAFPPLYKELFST
Assay: RORγ-Ligand Binding Domain (LBD) TR-FRET Assay
Format: biochemical
Settings: for TR-FRET Assay Max Response: upper plateau of 4-parameter fit, signal in the absence of ursolic acid or test compound set as 100; for EC50: with 2 μM RORγ antagonist ursolic acid, biotinylated SRC1 LXXLL peptide, ratio 665 nm/615 nm
Experimental: Exemplary compounds from the above Examples were tested for ability to increase RORγ activity using (i) a RORγ-Ligand Binding Domain (LBD) TR-FRET Assay, and (ii) a Gal4-RORγ Luciferase Reporter Assay in HEK-293T Cells. Assay procedures and results are described below.
Part I—Procedures for RORγ-Ligand Binding Domain TR-FRET Assay
HIS-tagged RORγ-LBD protein was expressed in SF9 cells using a baculovirus expression system. The lysate was diluted in assay buffer (50 mM Tris pH 7.0, 50 mM KCl, 1 mM EDTA, 0.1 mM DTT, 0.01% BSA) to obtain RORγ-LBD final concentration of −3 nM in a 384-well assay plate (need to titrate for each batch of protein).
A stock of biotinylated-LXXLL peptide from coactivator SRC1 (Biotin-[…]) was prepared in assay buffer and added to each well (200 nM final concentration). A solution of Europium tagged anti-HIS antibody (0.6 nM final concentration) and APC-conjugated streptavidin (30 nM final concentration) were also added to each well. RORγ antagonist ursolic acid was also included at a final concentration of 2 μM. Compounds were diluted in DMSO and further diluted in assay buffer with a final DMSO concentration at 1%.
The final assay mixture was incubated overnight at 4° C. or 2 hours at room temperature, and the fluorescence signal was measured on an Envision plate reader: (Excitation filter=340 nm; APC emission=665 nm; Europium emission=615 nm; dichroic mirror=D400/D630; delay time=100 μs, integration time=200 μs). 50% Effective concentration (EC50) values for test compounds were calculated from the quotient of the fluorescence signal at 665 nm divided by the fluorescence signal at 615 nm. The quotient of the fluorescence signals in the absence of ursolic acid or test compound is set as 100. Max Response is defined as the upper plateau in the signal as determined by line-fit using a 4-parameter logistic model in PRISM (GraphPad).

SMILES | EC50 | TR-FRET Assay Max Response
CCN(c1cccc(COC2CCCCC2C(F)(F)F)c1)S(=O)(=O)c1cccc(C(F)(F)F)c1 (stereo not shown) | 0.5 to 5 µM | ** (The symbol “**” indicates a value in the range of greater than 90 to 150)
CCN(c1cccc(COC2(C)CCCCC2)c1)S(=O)(=O)c1cccc(C(F)(F)F)c1 | < 0.5 µM | ** (The symbol “**” indicates a value in the range of greater than 90 to 150)
CCN(c1cccc(COC2CCCCC2)c1)S(=O)(=O)c1cccc(C(F)(F)F)c1 | 0.5 to 5 µM | ** (The symbol “**” indicates a value in the range of greater than 90 to 150)
CCN(c1cccc(C(C)Oc2c(F)cccc2Cl)c1)S(=O)(=O)c1cccc(C(F)(F)F)c1 (stereo not shown) | < 0.5 µM | ** (The symbol “**” indicates a value in the range of greater than 90 to 150)
CCN(c1cccc(OC(C)c2c(F)cccc2Cl)c1)S(=O)(=O)c1cccc(C(F)(F)F)c1 (stereo not shown) | > 10 µM | 
CCN(c1cccc(OCc2cc(C(F)(F)F)ccc2Cl)c1)S(=O)(=O)c1cccc(C(F)(F)F)c1 | > 10 µM | *** (The symbol “***” indicates a value in the range of greater than 150 to 200)
CCN(c1cccc(OCc2ccc(Cl)cc2Cl)c1)S(=O)(=O)c1cccc(C(F)(F)F)c1 | > 10 µM | ** (The symbol “**” indicates a value in the range of greater than 90 to 150)
CCN(c1cccc(OCc2cccc(C(F)(F)F)c2Cl)c1)S(=O)(=O)c1cccc(C(F)(F)F)c1 | > 10 µM | 
CCN(c1cccc(OCc2cccc(Cl)c2Cl)c1)S(=O)(=O)c1cccc(C(F)(F)F)c1 | > 10 µM | 
CCOc1nn(CC)cc1S(=O)(=O)N(CC)c1cccc(OCc2ccccc2)c1 | > 10 µM | 
CCN(c1cccc(CNC2CCCCC2)c1)S(=O)(=O)c1cccc(C(F)(F)F)c1 | > 10 µM | 
CCN(c1cccc(OC2Cc3ccccc3C2)c1)S(=O)(=O)c1cccc(C(F)(F)F)c1 | 0.5 to 5 µM | *** (The symbol “***” indicates a value in the range of greater than 150 to 200)
CCN(c1cccc(OCC2CCCCC2)c1)S(=O)(=O)c1cccc(C(F)(F)F)c1 | < 0.5 µM | **** (The symbol “****” indicates a value greater than 200)
CCN(c1cccc(OCc2c(F)cccc2Cl)c1)S(=O)(=O)c1cccc(C(F)(F)F)c1 | < 0.5 µM | **** (The symbol “****” indicates a value greater than 200)
CCN(c1cccc(OC2CCc3ccccc32)c1)S(=O)(=O)c1cccc(C(F)(F)F)c1 (stereo not shown) | < 0.5 µM | **** (The symbol “****” indicates a value greater than 200)
CCC(c1ccc(OCc2ccccc2)cc1)S(=O)(=O)c1cccc(C(F)(F)F)c1 (stereo not shown) | 0.5 to 5 µM | ** (The symbol “**” indicates a value in the range of greater than 90 to 150)
CCC(c1cccc(OCc2c(F)cccc2Cl)c1)S(=O)(=O)c1cccc(C(F)(F)F)c1 (stereo not shown) | < 0.5 µM | *** (The symbol “***” indicates a value in the range of greater than 150 to 200)
CCC(c1ccc(OCc2ccccc2)cc1)S(=O)(=O)c1ccc(Cl)cc1 (stereo not shown) | 0.5 to 5 µM | *** (The symbol “***” indicates a value in the range of greater than 150 to 200)
CCC(c1cccc(OCc2ccccc2)c1)S(=O)(=O)c1ccc(Cl)cc1 (stereo not shown) | > 10 µM | * (The symbol “*” indicates a value in the range of 70 to 90)
CCC(c1cccc(OCc2c(F)cccc2Cl)c1)S(=O)(=O)c1ccc(Cl)cc1 (stereo not shown) | < 0.5 µM | *** (The symbol “***” indicates a value in the range of greater than 150 to 200)

More lines, main results first:

EC50 | SMILES | TR-FRET Assay Max Response
< 0.5 µM | CCN(c1cccc(OCc2ccccc2F)c1)S(=O)(=O)c1cccc(C(F)(F)F)c1 | *** (The symbol “***” indicates a value in the range of greater than 150 to 200)
> 10 µM | CCN(c1cccc(C(C)Oc2ccccc2Cl)c1)S(=O)(=O)c1cccc(C(F)(F)F)c1 (stereo not shown) | ** (The symbol “**” indicates a value in the range of greater than 90 to 150)
0.5 to 5 µM | CCN(c1cccc(COc2ccccc2Cl)c1)S(=O)(=O)c1cccc(C(F)(F)F)c1 | ** (The symbol “**” indicates a value in the range of greater than 90 to 150)
< 0.5 µM | CCN(c1cccc(COc2c(F)cccc2Cl)c1)S(=O)(=O)c1cccc(C(F)(F)F)c1 | ** (The symbol “**” indicates a value in the range of greater than 90 to 150)
> 10 µM | CCN(c1cccc(Cn2ncc3ccccc32)c1)S(=O)(=O)c1cccc(C(F)(F)F)c1 | ** (The symbol “**” indicates a value in the range of greater than 90 to 150)
0.5 to 5 µM | CCN(Cc1cccc(N(CC)S(=O)(=O)c2cccc(C(F)(F)F)c2)c1)c1ccccc1Cl | ** (The symbol “**” indicates a value in the range of greater than 90 to 150)
> 10 µM | CCN(c1cccc(Cn2c(=O)oc3ccccc32)c1)S(=O)(=O)c1cccc(C(F)(F)F)c1 | ** (The symbol “**” indicates a value in the range of greater than 90 to 150)
0.5 to 5 µM | CCN(c1cccc(CN2CCc3ccccc32)c1)S(=O)(=O)c1cccc(C(F)(F)F)c1 | ** (The symbol “**” indicates a value in the range of greater than 90 to 150)
> 10 µM | CCN(c1cccc(CNc2ccccc2Cl)c1)S(=O)(=O)c1cccc(C(F)(F)F)c1 | ** (The symbol “**” indicates a value in the range of greater than 90 to 150)
> 10 µM | CCN(Cc1ccccc1Cl)c1cccc(N(CC)S(=O)(=O)c2cccc(C(F)(F)F)c2)c1 | ** (The symbol “**” indicates a value in the range of greater than 90 to 150)
> 10 µM | CCN(c1cccc(CNCc2ccccc2Cl)c1)S(=O)(=O)c1cccc(C(F)(F)F)c1 | ** (The symbol “**” indicates a value in the range of greater than 90 to 150)
> 10 µM | CCN(c1cccc(OCCc2ccccc2)c1)S(=O)(=O)c1cccc(C(F)(F)F)c1 | ** (The symbol “**” indicates a value in the range of greater than 90 to 150)
0.5 to 5 µM | CCN(c1cccc(OCc2ccccc2)c1)S(=O)(=O)c1cccc(C(F)(F)F)c1 | *** (The symbol “***” indicates a value in the range of greater than 150 to 200)
